System: MGL
Test: Phagocytosis assay with block of zymosan uptake
Assay type: cell-based, human
Conditions: 1 μM, 30 min prior to incubation with zymosan
Method: Phagocytosis Assay. Phagocytosis assay was performed according to the manufacturer's instructions with pHrodo™ Red Zymosan A BioParticles® (Life Technologies, Carlsbad, USA) conjugate for phagocytosis. Briefly, 20,000 MGL were plated on a 96-well tissue culture plate and incubated in M2 media [Neurobasal media supplemented with 2×Gem21 NeuroPlex, 1×NEAA, 1× Glutamax] containing fluorescently labeled zymosan particles (0.125 mg/ml) for 2 h at 37° C., 5% CO2. Fluorescence was measured with Tecan Infinite 200 PRO microplate reader (Life Sciences, Switzerland).
For experiments featuring block of zymosan uptake, cell monolayers were treated with 1 μM Cytochalasin D (Sigma-Aldrich) 30 min prior to incubation with zymosan.

In the case of `C=C1[C@@H](C)[C@H]2[C@H](Cc3ccccc3)NC(=O)[C@]23[C@H](OC(C)=O)/C=C/[C@@](C)(O)C(=O)[C@@H](C)C/C=C/[C@H]3[C@@H]1O` [Cytochalasin D], the “Engulfment of zymosan particles” value is reported as “reduced”.

From patent US20250262247A1, “MICROGLIAL CELLS AS THERAPEUTIC TARGETS IN NEURODEVELOPMENTAL DISORDERS” (The Regents of the University of California, priority 2022, published 2025)
